Experimental data as given in patent publication US20240299352A1, “COMBINATION THERAPIES WITH SETD2 INHIBITORS” (Epizyme, Inc., priority 2021, published 2024).

Tests used:
[1] = system: diffuse large B-cell lymphoma (DLBCL) cell lines; assay: Pre-treatment model combination study with Cpd. No. 15 (7 days pre-treatment, then combination; Table G), CellTiter-Glo viability, Loewe Volume; conditions: 7 days pre-treatment with Cpd. No. 15, then combination; for Combination effect with Cpd. No. 15 (Loewe Volume class), Farage: cell line Farage (Cat. No. CRL-2630); for Combination effect with Cpd. No. 15 (Loewe Volume class), HT: cell line HT (Cat. No. CRL-2631); for Combination effect with Cpd. No. 15 (Loewe Volume class), OCILY7: cell line OCILY7 (Cat. No. ACC 688); for Combination effect with Cpd. No. 15 (Loewe Volume class), SUDHL4: cell line SUDHL4 (Cat. No. ACC 495); for Combination effect with Cpd. No. 15 (Loewe Volume class), WILL2: cell line WILL2 (Cat. No. ACC 652)
[2] = system: JEKO1; assay: Co-treatment combination study with Cpd. No. 15, CellTiter-Glo viability, Loewe Volume; type: cell-based; conditions: in combination with Cpd. No. 15, seven days, mantle cell lymphoma cell line JEKO1 (CRL-3006)
Description: (§1) Mantle cell lymphoma (MCL) and diffuse large B-cell lymphoma (DLBCL) cell line cultures in log-linear growth rate were treated with combinations of Cpd. No. 15 and combination partners according to a co-treatment model. […] No. 15 and the combination partner. […] Each combination was tested in quadruplicate wells. The final concentration of DMSO (vehicle) in the assay was 0.1% v/v. Fifty microliters of cell line suspension were directly dispensed to the assay-ready plates with an automated multichannel dispenser on to 384-well assay-ready plates. Assay plates were incubated for seven days unless otherwise indicated in a humidified atmosphere of 5% CO2 at 37° C. Quantification of the effect of single agents or combinations on cell viability was performed through measurement of cellular adenosine triphosphate (ATP) using a CellTiter-Glo® (Promega, Madison, WI) Luminescent Cell Viability Assay. Luminescence was detected using a SpectraMax M5 microplate reader (Molecular Devices, Sunnyvale, CA). Concentration response plots were generated in GraphPad Prism version 7.0 for Windows, GraphPad Software, (La Jolla, California) and curves fitted to a four-parameter logistic model with variable slope. Percent of inhibition was calculated at each treatment concentration.

[3] = system: GRANTA519; assay: as above; type: cell-based; conditions: in combination with Cpd. No. 15, seven days, mantle cell lymphoma cell line GRANTA519 (ACC 342)
Description: as §1

[4] = system: Z138; assay: as above; type: cell-based; conditions: in combination with Cpd. No. 15, seven days, mantle cell lymphoma cell line Z138 (CRL-3001)
Description: as §1

[5] = system: MAVER1; assay: as above; type: cell-based; conditions: in combination with Cpd. No. 15, seven days, mantle cell lymphoma cell line MAVER1 (CRL-3008)
Description: as §1

[6] = system: JVM2; assay: as above; type: cell-based; conditions: in combination with Cpd. No. 15, seven days, mantle cell lymphoma cell line JVM2 (CRL-3002)
Description: as §1

[7] = system: REC1; assay: as above; type: cell-based; conditions: in combination with Cpd. No. 15, seven days, mantle cell lymphoma cell line REC1 (CRL-3004)
Description: as §1

[8] = system: MINO; assay: as above; type: cell-based; conditions: in combination with Cpd. No. 15, seven days, mantle cell lymphoma cell line MINO (CRL-3000)
Description: as §1

CN(C)CCCOc1ccc(-c2ccc3ncc4c(c3c2)n(C2CCOCC2)c(=O)n4C)cn1 [AZD0156]
Combination effect with Cpd. No. 15 (Loewe Volume class), Farage [1]: Synergy (VLoewe>1: synergy) | Combination effect with Cpd. No. 15 (Loewe Volume class), HT [1]: Synergy (VLoewe>1: synergy) | Combination effect with Cpd. No. 15 (Loewe Volume class), OCILY7 [1]: Synergy (VLoewe>1: synergy) | Combination effect with Cpd. No. 15 (Loewe Volume class), SUDHL4 [1]: Synergy (VLoewe>1: synergy) | Combination effect with Cpd. No. 15 (Loewe Volume class), WILL2 [1]: No Effect

C=CCn1c(=O)c2cnc(Nc3ccc(N4CCN(C)CC4)cc3)nc2n1-c1cccc(C(C)(C)O)n1 [AZD1775]
Combination effect with Cpd. No. 15 (Loewe Volume class), Farage [1]: Synergy (VLoewe>1: synergy) | Combination effect with Cpd. No. 15 (Loewe Volume class), HT [1]: Additivity (between 1 and −1: additivity) | Combination effect with Cpd. No. 15 (Loewe Volume class), OCILY7 [1]: Additivity (between 1 and −1: additivity) | Combination effect with Cpd. No. 15 (Loewe Volume class), SUDHL4 [1]: Synergy (VLoewe>1: synergy) | Combination effect with Cpd. No. 15 (Loewe Volume class), WILL2 [1]: Synergy (VLoewe>1: synergy)

C[C@@H]1COCCN1c1cc(C2([S@](C)(=N)=O)CC2)nc(-c2cc[nH]c3nccc2-3)n1 [AZD6738]
Combination effect with Cpd. No. 15 (Loewe Volume class), Farage [1]: Synergy (VLoewe>1: synergy) | Combination effect with Cpd. No. 15 (Loewe Volume class), HT [1]: Additivity (between 1 and −1: additivity) | Combination effect with Cpd. No. 15 (Loewe Volume class), OCILY7 [1]: Additivity (between 1 and −1: additivity) | Combination effect with Cpd. No. 15 (Loewe Volume class), SUDHL4 [1]: Synergy (VLoewe>1: synergy) | Combination effect with Cpd. No. 15 (Loewe Volume class), WILL2 [1]: No Effect

NC(=O)Nc1cc(-c2cccc(F)c2)sc1C(=O)N[C@H]1CCCNC1 [AZD7762]
Combination effect with Cpd. No. 15 (Loewe Volume class), Farage [1]: Synergy (VLoewe>1: synergy) | Combination effect with Cpd. No. 15 (Loewe Volume class), HT [1]: Additivity (between 1 and −1: additivity) | Combination effect with Cpd. No. 15 (Loewe Volume class), OCILY7 [1]: Additivity (between 1 and −1: additivity) | Combination effect with Cpd. No. 15 (Loewe Volume class), SUDHL4 [1]: Synergy (VLoewe>1: synergy) | Combination effect with Cpd. No. 15 (Loewe Volume class), WILL2 [1]: Additivity (between 1 and −1: additivity)

COc1c(OCCCN2CCOCC2)ccc2c1N=C(NC(=O)c1cnc(N)nc1)N1CCN=C21 [Copanlisib, copanlisib]
Combination effect (Loewe Volume) JEKO1 [2]: Additivity (between 1 and −1: additivity) | Combination effect (Loewe Volume) GRANTA519 [3]: Additivity (between 1 and −1: additivity) | Combination effect (Loewe Volume) Z138 [4]: Additivity (between 1 and −1: additivity) | Combination effect (Loewe Volume) MAVER1 [5]: Synergy (VLoewe>1: synergy) | Combination effect (Loewe Volume) JVM2 [6]: Additivity (between 1 and −1: additivity) | Combination effect (Loewe Volume) REC1 [7]: Additivity (between 1 and −1: additivity) | Combination effect (Loewe Volume) MINO [8]: Additivity (between 1 and −1: additivity)

COc1cccc2c1C(=O)c1c(O)c3c(c(O)c1C2=O)C[C@@](O)(C(=O)CO)C[C@@H]3O[C@H]1C[C@H](N)[C@H](O)[C@H](C)O1 [Doxorubicin (H)]
Combination effect with Cpd. No. 15 (Loewe Volume class), Farage [1]: Synergy (VLoewe>1: synergy) | Combination effect with Cpd. No. 15 (Loewe Volume class), HT [1]: Synergy (VLoewe>1: synergy) | Combination effect with Cpd. No. 15 (Loewe Volume class), OCILY7 [1]: Additivity (between 1 and −1: additivity) | Combination effect with Cpd. No. 15 (Loewe Volume class), SUDHL4 [1]: Synergy (VLoewe>1: synergy) | Combination effect with Cpd. No. 15 (Loewe Volume class), WILL2 [1]: Synergy (VLoewe>1: synergy)

CC[C@H](Nc1ncnc2[nH]cnc12)c1nc2cccc(F)c2c(=O)n1-c1ccccc1 [Idelalisib]
Combination effect with Cpd. No. 15 (Loewe Volume class), Farage [1]: Synergy (VLoewe>1: synergy) | Combination effect with Cpd. No. 15 (Loewe Volume class), HT [1]: Synergy (VLoewe>1: synergy) | Combination effect with Cpd. No. 15 (Loewe Volume class), OCILY7 [1]: Additivity (between 1 and −1: additivity) | Combination effect with Cpd. No. 15 (Loewe Volume class), SUDHL4 [1]: Synergy (VLoewe>1: synergy)

NC1(c2ccc(-c3nc4ccn5c(=O)[nH]nc5c4cc3-c3ccccc3)cc2)CCC1 [MK2206]
Combination effect with Cpd. No. 15 (Loewe Volume class), Farage [1]: Synergy (VLoewe>1: synergy) | Combination effect with Cpd. No. 15 (Loewe Volume class), HT [1]: Synergy (VLoewe>1: synergy) | Combination effect with Cpd. No. 15 (Loewe Volume class), OCILY7 [1]: Synergy (VLoewe>1: synergy) | Combination effect with Cpd. No. 15 (Loewe Volume class), SUDHL4 [1]: Synergy (VLoewe>1: synergy) | Combination effect with Cpd. No. 15 (Loewe Volume class), WILL2 [1]: Synergy (VLoewe>1: synergy)

NC(=O)c1cccc2cn(-c3ccc([C@@H]4CCCNC4)cc3)nc12 [Niraparib]
Combination effect with Cpd. No. 15 (Loewe Volume class), Farage [1]: Synergy (VLoewe>1: synergy) | Combination effect with Cpd. No. 15 (Loewe Volume class), HT [1]: Synergy (VLoewe>1: synergy) | Combination effect with Cpd. No. 15 (Loewe Volume class), OCILY7 [1]: Additivity (between 1 and −1: additivity) | Combination effect with Cpd. No. 15 (Loewe Volume class), SUDHL4 [1]: Synergy (VLoewe>1: synergy) | Combination effect with Cpd. No. 15 (Loewe Volume class), WILL2 [1]: Synergy (VLoewe>1: synergy)

O=C(c1cc(Cc2n[nH]c(=O)c3ccccc23)ccc1F)N1CCN(C(=O)C2CC2)CC1 [Olaparib]
Combination effect with Cpd. No. 15 (Loewe Volume class), Farage [1]: Synergy (VLoewe>1: synergy) | Combination effect with Cpd. No. 15 (Loewe Volume class), HT [1]: Synergy (VLoewe>1: synergy) | Combination effect with Cpd. No. 15 (Loewe Volume class), OCILY7 [1]: Additivity (between 1 and −1: additivity) | Combination effect with Cpd. No. 15 (Loewe Volume class), SUDHL4 [1]: Synergy (VLoewe>1: synergy) | Combination effect with Cpd. No. 15 (Loewe Volume class), WILL2 [1]: Synergy (VLoewe>1: synergy)

CC(=O)c1c(C)c2cnc(Nc3ccc(N4CCNCC4)cn3)nc2n(C2CCCC2)c1=O [Palbociclib, palbociclib]
Combination effect (Loewe Volume) JEKO1 [2]: Synergy (VLoewe>1: synergy) | Combination effect (Loewe Volume) GRANTA519 [3]: Additivity (between 1 and −1: additivity) | Combination effect (Loewe Volume) Z138 [4]: Additivity (between 1 and −1: additivity) | Combination effect (Loewe Volume) MAVER1 [5]: Synergy (VLoewe>1: synergy) | Combination effect (Loewe Volume) JVM2 [6]: Additivity (between 1 and −1: additivity) | Combination effect (Loewe Volume) REC1 [7]: Additivity (between 1 and −1: additivity) | Combination effect (Loewe Volume) MINO [8]: Additivity (between 1 and −1: additivity)

COc1cc(Nc2ncc(F)c(Nc3ccc4c(n3)NC(=O)C(C)(C)O4)n2)cc(OC)c1OC [Tamatinib]
Combination effect with Cpd. No. 15 (Loewe Volume class), Farage [1]: Synergy (VLoewe>1: synergy) | Combination effect with Cpd. No. 15 (Loewe Volume class), HT [1]: Additivity (between 1 and −1: additivity) | Combination effect with Cpd. No. 15 (Loewe Volume class), OCILY7 [1]: Additivity (between 1 and −1: additivity) | Combination effect with Cpd. No. 15 (Loewe Volume class), SUDHL4 [1]: Synergy (VLoewe>1: synergy) | Combination effect with Cpd. No. 15 (Loewe Volume class), WILL2 [1]: Additivity (between 1 and −1: additivity)

CC(=O)Nc1cccc(-n2c(=O)n(C3CC3)c(=O)c3c(Nc4ccc(I)cc4F)n(C)c(=O)c(C)c32)c1 [Trametinib]
Combination effect with Cpd. No. 15 (Loewe Volume class), Farage [1]: Synergy (VLoewe>1: synergy) | Combination effect with Cpd. No. 15 (Loewe Volume class), HT [1]: Synergy (VLoewe>1: synergy) | Combination effect with Cpd. No. 15 (Loewe Volume class), OCILY7 [1]: Synergy (VLoewe>1: synergy) | Combination effect with Cpd. No. 15 (Loewe Volume class), SUDHL4 [1]: Synergy (VLoewe>1: synergy)
